The record followed here is patent US7927785B2, “Methods for in vitro expansion of hematopoietic stem cells” (The Board of Trustees of the University of Illinois, priority 2002, dated 2011).

For assay [1], the system named is adult human bone marrow CD34+ cells. In words: Colony-forming cell (CFC) assay in methylcellulose. The following applies: for Total Number Colonies/plate / BFU-E / CFU-GM / CFU-Mix: cells after 9 days with cytokines, mean of 2 ± SEM; for BFU-E / CFU-GM / CFU-Mix: colonies/plate; for BFU (BFU-E colonies) / GM (CFU-GM colonies) / Mix (CFU-Mix colonies) / Total (colonies): mean of 3 experiments, 1000 unfractionated cells/plate after 9 days of culture, day 14; for Clonogenic potential: total colonies/number of cells plated×100; for Plating Efficiencies: total number of hematopoietic colonies/total cells plated × 100. It counts as cell-based. Here is the method: Colony-forming cells (CFC) were assayed under standard conditions in semisolid media as previously described (Brandt et al., Blood 94:106-113, 1999). Briefly 1×10^3 primary CD34^+ cells or unfractionated cultured cells exposed to different conditions used following 9 days of culture were plated in duplicate cultures containing 1 ml IMDM with 1.1% methylcellulose, 30% FBS, 5×10^−5 M 2-mercaptoethanol (Methocult, Stem Cell Technologies, Vancouver, BC, Canada), and a cocktail of growth factors including 100 ng/ml of SCF, 5 U/mL of EPO, 50 ng/mL of IL-3, 50 ng/mL of IL-6 and 50 ng/mL of G-CSF (Amgen Inc., Thousand Oaks, Calif.). The cells were plated into 35 mm tissue-culture dishes (Costar), and after 14 days of incubation at 37° C. in a 100%-humidified atmosphere containing 5% CO2, the colonies were scored with an inverted microscope following standard criteria (Breems et al., Leukemia, 8:1095-1104, 1994).

Assay [2] shares this test system. In words: Cobblestone area-forming cell (CAFC) assay in limiting dilution. The assay is classed as cell-based. The following applies: for CAFC/10,000 Cells: after 9 days of culture, unfractionated, cobblestone areas counted after 5 weeks. Here is the method:
The ability of primitive HSC to form cobblestone areas (CA) in long term marrow cultures has been used as an in vitro surrogate progenitor HSC assay (Breems et al., Leukemia, 8:1095-1104, 1994, Lefkovits et al., Immunol. Today, 5:265-268, 1984; Cross et al., Curr. Opin. Genet. Dev., 5:609-613, 1997). CD34^+ cells after 9 days of culture from each condition were plated in limiting dilution in flat-bottomed 96-well plates (Costar) onto confluent, irradiated (7000cGy) monolayers of the murine stromal fibroblast line M2-10B4 (a gift from Dr. C. Eaves, Vancouver, BC, Canada). Each well contained 200 μL of a 50:50 mixture of IMDM and RPMI with 10% FBS. A cocktail of growth factors, including 100 ng/mL SCF, 100 ng/mL leukemia inhibitory factor (LIF), 50 ng/mL IL-3, 50 ng/mL IL-6 and 50 ng/mL granulocyte-monocyte colony stimulating factor (GM-CSF) (Amgen, Thousand Oaks, Calif.).
The cultures were fed weekly by replacement of one half of the culture volume with fresh medium containing the above cytokines at 2 times the previously defined concentration. After 5 weeks of culture in a humidified incubator at 37° C. containing 5% CO2, the number of CA were ennumerated. The CAFC frequency was computed by means of minimization of chi regression to the cell number at which 37% of wells were negative for CA formation, with 95% statistical precision using L-Calc (Limiting dilution calculation) software (Stem Cell Inc., Vancouver, Canada; Lefkovits et al., Curr. Opin. Genet. Dev. 5:609-613, 1997).

For the next assay, the system named is NOD/SCID mice. In words: Marrow repopulation assay of human cell grafts in NOD/SCID mice. It counts as in vivo. The settings on record: cells after 9 days of culture with cytokines; 7 weeks. The protocol: A colony of immunodeficient nonobese diabetic/ltsz-scid/scid (NOD/SCID) mice were purchased from the Jackson Laboratories (Bar Harbor, Me.) and were maintained as previously described (Coneallt et al., Proc. Nat'l Acad. Sci. USA, 94:9836-41, 1997). All NOD/SCID mice were kept under sterile conditions in the microisolator cages and were provided with autoclaved food and acidified water.
Mice were given 300cGy of total body gamma irradiation and human grafts were injected via the tail vein. Cytokines including SCF, IL-3 and GM-CSF at 5 ug/mouse were injected intraperitoneally on alternate days following injection of human grafts during the first week of transplant. Sulfamethoxazole (40 mg/mL) and Trimethoprim (8 mg/mL)(SMX/TMZ; Elkins-Sinn, Cherry Hill, N.J.) were added in the drinking water for 3 days post injection and then subsequently for 3 days beginning the second week of transplant. Mice were sacrificed after 7 weeks. Femurs and tibias were flushed with Hank's balanced salt solution (HBSS) (Biowhittiker) with 2% FBS (Hyclone) and 0.02% sodium azide and cell counts performed. […] Marrow cells were analyzed by flow cytometry to detect human cell engraftment as previously described.^29 Briefly to quantitate the total number of human cells present an aliquot of cells was stained with anti-CD45-FITC(BD) and anti-CD71-FITC(BD). […]

On to `CC(/C=C/C(=O)NO)=C\[C@@H](C)C(=O)c1ccc(N(C)C)cc1` [TSA, Trichostatin A], for which, in assay [1], the “Total Number Colonies/plate” value is reported as 14.3 ± 8.1, the BFU-E came out at 0.0, the CFU-GM is 13 ± 6.6 and the CFU-Mix is recorded as 1.3 ± 0.8. Besides, in assay [1], the “BFU (BFU-E colonies)” value was determined as 0, the “GM (CFU-GM colonies)” value is on record as 3, the “Mix (CFU-Mix colonies)” value is 0 and the “Total (colonies)” value is on record as 3. Besides, in assay [1], the Clonogenic potential turned out to be 0.3% and the “Plating Efficiencies” value came to 1.4 ± 0.8. In addition, in assay [2] (9 days with cytokines), the “numbers of CAFC relative to cytokines alone” value is on record as “comparable numbers of CAFC as cultures receiving cytokines alone”. The “CAFC/10,000 Cells” value in assay [2] was 16 CAFC/10,000 cells. The “marrow repopulating activity: engraftment and multilineage differentiation” value in the assay on NOD/SCID mice is listed as “no longer possessed such marrow repopulating activity”.
Consider `Nc1ncn([C@H]2C[C@H](O)[C@@H](CO)O2)c(=O)n1` [5azaD, 5-aza2′deoxycitidine], for which, in assay [1], the “Total Number Colonies/plate” value came out at 97.8 ± 11.1, the BFU-E was 4 ± 1.5, the CFU-GM amounted to 73.0 ± 0.25 and the CFU-Mix stood at 20.8 ± 9.3. In assay [1], the “BFU (BFU-E colonies)” value is reported as 5, the “GM (CFU-GM colonies)” value was 52, the “Mix (CFU-Mix colonies)” value came to 27 and the “Total (colonies)” value was determined as 84. For the same molecule, in assay [1], the Clonogenic potential worked out at 8.4% and the “Plating Efficiencies” value was 9.8 ± 1.1. Besides, in assay [2] (9 days with cytokines), the “fold increase in the number of CAFC over the primary cells” value is given as 1.9 fold. Further, in assay [2], the “CAFC/10,000 Cells” value was 96 CAFC/10,000 cells. The “marrow repopulating activity: engraftment and multilineage differentiation” value in the assay on NOD/SCID mice is “retained the ability to engraft NOD/SCID mice”.
